Test results reported in US9834542B2, “LXR modulators” (BRISTOL-MYERS SQUIBB COMPANY, priority 2013, dated 2017).

Molecular target: T1, LXRβ (Homo sapiens, UniProt P55055)
T1 construct: Co-transfection expression plasmids, comprising full-length LXRα (pCMX-h LXRα[…] or LXRβ (pCMX-hLXRβ)); expressed in transfected cells; host or cells: CV-1 African Green Monkey Kidney Cells
T1 sequence (P55055 1-460): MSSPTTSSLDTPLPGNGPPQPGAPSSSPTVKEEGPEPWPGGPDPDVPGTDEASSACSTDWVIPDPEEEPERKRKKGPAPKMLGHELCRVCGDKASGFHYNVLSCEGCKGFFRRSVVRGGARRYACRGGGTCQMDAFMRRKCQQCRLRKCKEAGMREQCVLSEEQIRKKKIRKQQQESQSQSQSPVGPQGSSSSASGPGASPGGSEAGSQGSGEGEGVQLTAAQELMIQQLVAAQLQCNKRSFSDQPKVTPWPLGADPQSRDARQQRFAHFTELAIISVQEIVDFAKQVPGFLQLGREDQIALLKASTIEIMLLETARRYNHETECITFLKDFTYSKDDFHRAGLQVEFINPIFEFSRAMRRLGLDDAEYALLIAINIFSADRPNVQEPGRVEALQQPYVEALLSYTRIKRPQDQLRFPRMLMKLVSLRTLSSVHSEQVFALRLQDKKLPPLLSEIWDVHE
T1 sequence (P19793 1-462 partner): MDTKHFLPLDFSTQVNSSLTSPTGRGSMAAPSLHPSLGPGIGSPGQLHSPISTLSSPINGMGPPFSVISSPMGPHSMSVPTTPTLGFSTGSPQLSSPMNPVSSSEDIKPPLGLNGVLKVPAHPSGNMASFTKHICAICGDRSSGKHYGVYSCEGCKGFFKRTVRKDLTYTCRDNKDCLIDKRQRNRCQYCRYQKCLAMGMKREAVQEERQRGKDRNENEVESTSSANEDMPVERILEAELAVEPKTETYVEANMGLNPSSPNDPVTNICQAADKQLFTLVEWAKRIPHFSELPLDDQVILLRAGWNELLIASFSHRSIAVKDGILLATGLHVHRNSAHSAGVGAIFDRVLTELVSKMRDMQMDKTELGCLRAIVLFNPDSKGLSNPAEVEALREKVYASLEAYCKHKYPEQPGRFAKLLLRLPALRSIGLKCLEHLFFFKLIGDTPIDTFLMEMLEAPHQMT
Experiment: Co-transfection assay (LXRE luciferase reporter), LXRβ
Type: cell-based
Conditions: for EC50: CV-1 cells transfected with pCMX-hLXRβ and LXREx1-Tk-Luciferase, 20 hours incubation; for Emax: LXRβ co-transfection, relative to high control 1-(2,4-difluorobenzyl)-2-oxo-6-(4-phenoxyphenyl)-4-(trifluoromethyl)-1,2-dihydropyridine-3-carbonitrile, read-out: % Efficacy
Method in brief: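 Luciferase output from an LXRE-Tk reporter measured after 20 h, 37 °C compound exposure of transiently transfected CV-1 cells expressing human LXRβ with endogenous RXR. EC50 fitted from 11-point half-log dose responses (mean of ≥2 runs); % efficacy versus maximal response of the reference agonist.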

| SMILES | EC50 | Emax |
| --- | --- | --- |
| CC(=O)c1ccc(-c2cnnn2-c2cc(-c3cccc(S(C)(=O)=O)c3)ccc2-n2cc(C(F)(F)F)nc2C)cc1 [Example 36, 1-[4-(1-{3′-(methylsulfonyl)-4-[2-methyl-4-(trifluoromethyl)-1H-imidazol-1-yl]biphenyl-3-yl}-1H-1,2,3-triazol-5-yl)phenyl]ethanone] | 724 nM | 60% |
| Cc1nc(C(F)(F)F)cn1-c1c(F)cc(-c2cc(F)c(CO)c(S(C)(=O)=O)c2)cc1-n1nncc1-c1ccc(Cl)cc1Cl [Example 200, {3′-[5-(2,4-dichlorophenyl)-1H-1,2,3-triazol-1-yl]-3,5′-difluoro-5-(methylsulfonyl)-4′-[2-methyl-4-(trifluoromethyl)-1H-imidazol-1-yl]biphenyl-4-yl}methanol] | 74 nM | 83% |
| Cc1nc(-c2cc(-c3ccc(CO)c(S(C)(=O)=O)c3)ccc2-n2cc(C(F)(F)F)nc2C)c(-c2cc(F)c(OC(F)F)c(F)c2)o1 [Example 469, (3′-(5-(4-(difluoromethoxy)-3,5-difluorophenyl)-2-methyloxazol-4-yl)-4′-(2-methyl-4-(trifluoromethyl)-1H-imidazol-1-yl)-3-(methylsulfonyl)biphenyl-4-yl)methanol] | 89 nM | 70% |
| Cc1nc(C(F)(F)F)cn1-c1c(F)cc(-c2cccc(S(C)(=O)=O)c2)cc1-n1nncc1-c1ccc(Cl)cc1Cl [Example 8, 5-(2,4-dichlorophenyl)-1-{5-fluoro-3′-(methylsulfonyl)-4-[2-methyl-4-(trifluoromethyl)-1H-imidazol-1-yl]biphenyl-3-yl}-1H-1,2,3-triazole] | 143 nM | 91% |
| Cc1nc(C(F)(F)F)cn1-c1ccc(-c2cccc(S(C)(=O)=O)c2)cc1-n1nncc1-c1ccc(F)cc1F [Example 40, 5-(2,4-difluorophenyl)-1-{3′-(methylsulfonyl)-4-[2-methyl-4-(trifluoromethyl)-1H-imidazol-1-yl]biphenyl-3-yl}-1H-1,2,3-triazole] | 954 nM | 87% |
| CCC(F)(F)c1cn(-c2ccc(-c3cccc(S(=O)(=O)N(C)C)c3)cc2-n2nncc2-c2ccc(OC(F)(F)F)cc2)c(C)n1 [Example 182, 4′-[4-(1,1-difluoropropyl)-2-methyl-1H-imidazol-1-yl]-N,N-dimethyl-3′-(5-{4-[(trifluoromethyl)oxy]phenyl}-1H-1,2,3-triazol-1-yl)biphenyl-3-sulfonamide] | 494 nM | 78% |
| Cc1nc(C(F)(F)F)cn1-c1ccc(-c2cccc(S(C)(=O)=O)c2)cc1-n1nncc1Cc1ccc(Cl)cc1 [Example 125, 5-[(4-chlorophenyl)methyl]-1-{3′-(methylsulfonyl)-4-[2-methyl-4-(trifluoromethyl)-1H-imidazol-1-yl]biphenyl-3-yl}-1H-1,2,3-triazole] | 355 nM | 83% |
| CS(=O)(=O)c1cccc(-c2ccc(-n3cc(C(F)(F)F)nc3Cl)c(-n3nncc3-c3ccc(OC(F)(F)F)cc3)c2)c1 [Example 146, 1-{4-[2-chloro-4-(trifluoromethyl)-1H-imidazol-1-yl]-3′-(methylsulfonyl)biphenyl-3-yl}-5-{4-[(trifluoromethyl)oxy]phenyl}-1H-1,2,3-triazole] | 251 nM | 112% |
| Cc1nc(-c2cc(-c3cccc(C(C)(C)C(N)=O)c3)ccc2-n2cc(C(F)(F)F)nc2C)c(-c2ccc(OC(F)F)cc2)o1 [Example 542, 2-(3′-(5-(4-(difluoromethoxy)phenyl)-2-methyloxazol-4-yl)-4′-(2-methyl-4-(trifluoromethyl)-1H-imidazol-1-yl)-[1,1′-biphenyl]-3-yl)-2-methylpropanamide] | 82 nM | 89% |
| Cc1nc(-c2cc(-c3cccc(S(C)(=O)=O)c3)ccc2-n2cc(C(F)(F)F)nc2C)c(-c2ccc(OCC(F)F)c(F)c2)o1 [Example 425, 5-(4-(2,2-difluoroethoxy)-3-fluorophenyl)-2-methyl-4-(4-(2-methyl-4-(trifluoromethyl)-1H-imidazol-1-yl)-3′-(methylsulfonyl)biphenyl-3-yl)oxazole] | 203 nM | 71% |
| Cc1nc(-c2cc(-c3cccc(S(=O)(=O)C(F)F)c3)ccc2-n2cc(C(F)(F)F)nc2C)c(-c2ccc(OC(F)F)c(F)c2)o1 [Example 430, 5-(4-(difluoromethoxy)-3-fluorophenyl)-4-(3′-(difluoromethylsulfonyl)-4-(2-methyl-4-(trifluoromethyl)-1H-imidazol-1-yl)biphenyl-3-yl)-2-methyloxazole] | 225 nM | 88% |
| Cc1nc(C(F)(F)F)cn1-c1ccc(-c2cccc(S(C)(=O)=O)c2)cc1-n1nncc1C(C)(F)c1ccc(Cl)cc1 (stereo not shown) [Example 224, 5-(1-(4-chlorophenyl)-1-fluoroethyl)-1-(4-(2-methyl-4-(trifluoromethyl)-1H-imidazol-1-yl)-3′-(methylsulfonyl)-[1,1′-biphenyl]-3-yl)-1H-1,2,3-triazole] | 411 nM | 57% |
| CS(=O)(=O)c1cccc(-c2ccc(-n3cc(C(F)(F)F)nc3C(F)F)c(-n3nncc3-c3ccc(OC(F)(F)F)cc3)c2)c1 [Example 226, 1-(4-(2-(difluoromethyl)-4-(trifluoromethyl)-1H-imidazol-1-yl)-3′-(methylsulfonyl)-[1,1′-biphenyl]-3-yl)-5-(4-(trifluoromethoxy)phenyl)-1H-1,2,3-triazole] | 677 nM | 92% |
| Cc1nc(C(F)(F)F)cn1-c1ccc(-c2cc(F)c(CO)c(S(C)(=O)=O)c2)cc1-c1oc(CCO)nc1-c1ccc2c(c1)OC(F)(F)O2 [Example 621, 2-(4-(2,2-difluorobenzo[d][1,3]dioxol-5-yl)-5-(3′-fluoro-4′-(hydroxymethyl)-4-(2-methyl-4-(trifluoromethyl)-1H-imidazol-1-yl)-5′-(methylsulfonyl)-[1,1′-biphenyl]-3-yl)oxazol-2-yl)ethanol] | 790 nM | 81% |
| Cc1nc(C(F)(F)F)cn1-c1ccc(-c2ccc(CO)c(S(C)(=O)=O)c2)cc1-c1ccnn1-c1ccc2c(c1)OC(F)(F)O2 [Example 295, (3′-(1-(2,2-difluorobenzo[d][1,3]dioxol-5-yl)-1H-pyrazol-5-yl)-4′-(2-methyl-4-(trifluoromethyl)-1H-imidazol-1-yl)-3-(methylsulfonyl)biphenyl-4-yl)methanol] | 40 nM | 80% |
| Cc1nc(C(F)(F)F)cn1-c1ccc(-c2cc(F)c(CO)c(S(C)(=O)=O)c2)cc1-n1nncc1Cc1cccc(Cl)c1 [Example 120, (3′-{5-[(3-chlorophenyl)methyl]-1H-1,2,3-triazol-1-yl}-3-fluoro-5-(methylsulfonyl)-4′-[2-methyl-4-(trifluoromethyl)-1H-imidazol-1-yl]biphenyl-4-yl)methanol] | 795 nM | 91% |
| Cc1cc(-c2cc(-c3cc(F)c(CO)c(S(C)(=O)=O)c3)ccc2-n2cc(C(F)(F)F)nc2C)n(-c2ccc(OC(F)F)cc2)n1 [Example 287, (3′-(1-(4-(difluoromethoxy)phenyl)-3-methyl-1H-pyrazol-5-yl)-3-fluoro-4′-(2-methyl-4-(trifluoromethyl)-1H-imidazol-1-yl)-5-(methylsulfonyl)biphenyl-4-yl)methanol] | 26 nM | 80% |
| CS(=O)(=O)c1cccc(-c2ccc(-n3cc(C(F)(F)F)nc3Cl)c(-n3nncc3-c3ccc(Cl)cc3Cl)c2)c1 [Example 143, 1-{4-[2-chloro-4-(trifluoromethyl)-1H-imidazol-1-yl]-3′-(methylsulfonyl)biphenyl-3-yl}-5-(2,4-dichlorophenyl)-1H-1,2,3-triazole] | 942 nM | 98% |
| Cc1nc(C(F)F)c(Cl)n1-c1ccc(-c2cccc(S(C)(=O)=O)c2)cc1-n1nncc1-c1ccc(OC(F)(F)F)cc1 [Example 172, 1-{4-[5-chloro-4-(difluoromethyl)-2-methyl-1H-imidazol-1-yl]-3′-(methylsulfonyl)biphenyl-3-yl}-5-{4-[(trifluoromethyl)oxy]phenyl}-1H-1,2,3-triazole] | 1030 nM | 159% |
| Cc1nc(-c2cc(-c3cccc(S(C)(=O)=O)c3)ccc2-n2cc(C(F)(F)F)nc2C)c(-c2cccn(C(C)C)c2=O)o1 [Example 379, 1-isopropyl-3-(2-methyl-4-(4-(2-methyl-4-(trifluoromethyl)-1H-imidazol-1-yl)-3′-(methylsulfonyl)biphenyl-3-yl)oxazol-5-yl)pyridin-2(1H)-one] | 825 nM | 21% |
